Key:
Format in all cases: functional
[1] = system: UACC-62; assay: Growth inhibition of human UACC62 cells after 48 hrs by SRB staining method; conditions: UACC-62, 48 h
[2] = system: RXF 393; assay: Growth inhibition of human RXF393 cells after 48 hrs by SRB staining method; conditions: RXF 393, 48 h
[3] = system: PC-3; assay: Growth inhibition of human PC3 cells after 48 hrs by SRB staining method; conditions: PC-3, 48 h
[4] = system: M14; assay: Growth inhibition of human M14 cells after 48 hrs by SRB staining method; conditions: M14, 48 h
[5] = system: OVCAR-4; assay: Growth inhibition of human OVCAR4 cells after 48 hrs by SRB staining method; conditions: OVCAR-4, 48 h
[6] = system: MDA-MB-231; assay: Growth inhibition of human MDA-MB-231 cells after 48 hrs by SRB staining method; conditions: MDA-MB-231, 48 h
[7] = system: UO-31; assay: Growth inhibition of human UO31 cells after 48 hrs by SRB staining method; conditions: UO-31, 48 h
[8] = system: NCI-H23; assay: Growth inhibition of human NCI-H23 cells after 48 hrs by SRB staining method; conditions: NCI-H23, 48 h
[9] = system: MDA-MB-435; assay: Growth inhibition of human MDA-MB-435 cells after 48 hrs by SRB staining method; conditions: MDA-MB-435, 48 h
[10] = system: HCT-116; assay: Growth inhibition of human HCT116 cells after 48 hrs by SRB staining method; conditions: HCT-116, 48 h
[11] = system: SF-268; assay: Growth inhibition of human SF268 cells after 48 hrs by SRB staining method; conditions: SF-268, 48 h
[12] = system: Malme-3M; assay: Growth inhibition of human MALME-3M cells after 48 hrs by SRB staining method
[13] = system: RPMI-8226; assay: Growth inhibition of human RPMI8226 cells after 48 hrs by SRB staining method; conditions: RPMI-8226, 48 h
[14] = system: A498; assay: Growth inhibition of human A498 cells after 48 hrs by SRB staining method; conditions: A498, 48 h
[15] = system: NCI-H522; assay: Growth inhibition of human NCI-H522 cells after 48 hrs by SRB staining method; conditions: NCI-H522, 48 h
[16] = system: SK-MEL-5; assay: Growth inhibition of human SK-MEL-5 cells after 48 hrs by SRB staining method; conditions: SK-MEL-5, 48 h
[17] = system: SN12C; assay: Growth inhibition of human SN12C cells after 48 hrs by SRB staining method
[18] = system: SNB-19; assay: Growth inhibition of human SNB19 cells after 48 hrs by SRB staining method; conditions: SNB-19, 48 h
[19] = system: OVCAR-3; assay: Growth inhibition of human OVCAR-3 cells after 48 hrs by SRB staining method; conditions: OVCAR-3, 48 h
[20] = system: OVCAR-8; assay: Growth inhibition of human OVCAR8 cells after 48 hrs by SRB staining method; conditions: OVCAR-8, 48 h
[21] = system: KM12; assay: Growth inhibition of human KM12 cells after 48 hrs by SRB staining method; conditions: KM12, 48 h
[22] = system: NCI-H322M; assay: Growth inhibition of human NCI-H322M cells after 48 hrs by SRB staining method
[23] = system: MCF7; assay: Growth inhibition of human MCF7 cells after 48 hrs by SRB staining method; conditions: MCF7, 48 h
[24] = system: NCI/ADR-RES; assay: Growth inhibition of human NCI/ADR-RES cells after 48 hrs by SRB staining method
[25] = system: TK-10; assay: Growth inhibition of human TK10 cells after 48 hrs by SRB staining method; conditions: TK-10, 48 h
[26] = system: HOP-62; assay: Growth inhibition of human HOP62 cells after 48 hrs by SRB staining method; conditions: HOP-62, 48 h
[27] = system: SK-MEL-28; assay: Growth inhibition of human SK-MEL-28 cells after 48 hrs by SRB staining method; conditions: SK-MEL-28, 48 h
[28] = system: ACHN; assay: Growth inhibition of human ACHN cells after 48 hrs by SRB staining method
[29] = system: CAKI-1; assay: Growth inhibition of human CAKI1 cells after 48 hrs by SRB staining method; conditions: CAKI-1, 48 h
[30] = system: A549; assay: Growth inhibition of human A549 cells after 48 hrs by SRB staining method; conditions: A549, 48 h
[31] = system: OVCAR-5; assay: Growth inhibition of human OVCAR5 cells after 48 hrs by SRB staining method; conditions: OVCAR-5, 48 h
[32] = system: NCI-H226; assay: Growth inhibition of human NCI-H226 cells after 48 hrs by SRB staining method; conditions: NCI-H226, 48 h
[33] = read-out: pLC50 (the source's name) (converted)

## COc1ccc(Nc2nc3cc(N)cc(N)c3nc2-c2ccccc2)cc1OC
[1]
  GI50: 13.5 µM
  LC50: 56.2 µM
[1]; read-out: pTGI (converted)
  TGI: 27.5 µM
[2]
  GI50: 8.13 µM
[2]; [33]
  CC50: > 100 µM
[2]; read-out: pTGI (converted)
  TGI: 49 µM
[3]
  GI50: 14.1 µM
[3]; [33]
  CC50: 93.3 µM
[3]; read-out: pTGI (converted)
  TGI: 36.3 µM
[4]
  GI50: 20.9 µM
  LC50: > 100 µM
[4]; read-out: pTGI (converted)
  TGI: 69.2 µM
[5]
  GI50: 18.6 µM
  LC50: > 100 µM
[5]; read-out: pTGI (converted)
  TGI: 52.5 µM
[6]
  GI50: 4.9 µM
[6]; [33]
  CC50: 46.8 µM
[6]; read-out: pTGI (converted)
  TGI: 18.6 µM
[7]
  GI50: 28.2 µM
[7]; [33]
  CC50: > 100 µM
[7]; read-out: pTGI (converted)
  TGI: > 100 µM
[8]
  GI50: 26.3 µM
  LC50: > 100 µM
[8]; read-out: pTGI (converted)
  TGI: 79.4 µM
[9]
  GI50: 16.2 µM
[9]; [33]
  CC50: 63.1 µM
[9]; read-out: pTGI (converted)
  TGI: 32.4 µM
[10]
  GI50: 14.8 µM
  LC50: 58.9 µM
[10]; read-out: pTGI (converted)
  TGI: 29.5 µM
[11]
  GI50: 14.1 µM
[11]; [33]
  CC50: > 100 µM
[11]; read-out: pTGI (converted)
  TGI: 46.8 µM
[12]
  GI50: 15.8 µM
  LC50: 81.3 µM
[12]; read-out: pTGI (converted)
  TGI: 35.5 µM
[13]
  GI50: 7.94 µM
[13]; [33]
  CC50: 87.1 µM
[13]; read-out: pTGI (converted)
  TGI: 28.2 µM
[14]
  GI50: 11.7 µM
[14]; [33]
  CC50: > 100 µM
[14]; read-out: pTGI (converted)
  TGI: 56.2 µM
[15]
  GI50: 28.8 µM
  LC50: > 100 µM
[15]; read-out: pTGI (converted)
  TGI: > 100 µM
[16]
  GI50: 12.3 µM
  LC50: 53.7 µM
[16]; read-out: pTGI (converted)
  TGI: 25.7 µM
[17]
  GI50: 16.6 µM
[17]; [33]
  CC50: > 100 µM
[17]; read-out: pTGI (converted)
  TGI: 43.7 µM
[18]
  GI50: 35.5 µM
  LC50: > 100 µM
[18]; read-out: pTGI (converted)
  TGI: > 100 µM
[19]
  GI50: 30.2 µM
  LC50: > 100 µM
[19]; read-out: pTGI (converted)
  TGI: > 100 µM
[20]
  GI50: 33.9 µM
[20]; [33]
  CC50: > 100 µM
[20]; read-out: pTGI (converted)
  TGI: > 100 µM
[21]
  GI50: 14.8 µM
  LC50: 69.2 µM
[21]; read-out: pTGI (converted)
  TGI: 32.4 µM
[22]
  GI50: > 100 µM
  LC50: > 100 µM
[22]; read-out: pTGI (converted)
  TGI: 25.1 µM
[23]
  GI50: 20.4 µM
[23]; [33]
  CC50: 97.7 µM
[23]; read-out: pTGI (converted)
  TGI: 44.7 µM
[24]
  GI50: 17.4 µM
[24]; [33]
  CC50: > 100 µM
[24]; read-out: pTGI (converted)
  TGI: 42.7 µM
[25]
  GI50: 20.9 µM
[25]; [33]
  CC50: > 100 µM
[25]; read-out: pTGI (converted)
  TGI: 58.9 µM
[26]
  GI50: 34.7 µM
  LC50: > 100 µM
[26]; read-out: pTGI (converted)
  TGI: > 100 µM
[27]
  GI50: 21.4 µM
[27]; [33]
  CC50: > 100 µM
[27]; read-out: pTGI (converted)
  TGI: 50.1 µM
[28]
  GI50: 27.5 µM
[28]; [33]
  CC50: > 100 µM
[28]; read-out: pTGI (converted)
  TGI: > 100 µM
[29]
  GI50: 18.2 µM
[29]; [33]
  CC50: > 100 µM
[29]; read-out: pTGI (converted)
  TGI: 66.1 µM
[30]
  GI50: 35.5 µM
[30]; [33]
  CC50: > 100 µM
[30]; read-out: pTGI (converted)
  TGI: > 100 µM
[31]
  GI50: 29.5 µM
  LC50: > 100 µM
[31]; read-out: pTGI (converted)
  TGI: 72.4 µM
[32]
  GI50: 18.6 µM
  LC50: > 100 µM
[32]; read-out: pTGI (converted)
  TGI: 57.5 µM
